In ChEMBL document CHEMBL5385907, “Proline-Hinged α-Helical Peptides Sensitize Gram-Positive Antibiotics, Expanding Their Physicochemical Properties to Be Used as Gram-Negative Antibiotics” (J Med Chem, 2024):
Calls of active or inactive are those of the source. The calls are words filed in the database; no cut-off is given here. Residues, ends and D or L forms follow the SMILES beside them.

Key:
[1] = Hemolytic activity in human blood assessed as hemolysis incubated for 6 hrs by microplate reader analysis; assay type: toxicity, tissue-based
[2] = Hydrophobicity of the compound assessed as retention time by reversed-phase HPLC analysis; assay type: physicochemical
Klebsiella pneumoniae [3] = experiment: Antibacterial activity against Klebsiella pneumoniae ATCC 700603 assessed as inhibition of bacterial growth incubated for 18 hrs by two fold serial dilution assay; assay type: functional
Acinetobacter baumannii [4] = experiment: Antibacterial activity against Acinetobacter baumannii ATCC 17978 assessed as inhibition of bacterial growth incubated for 18 hrs by two fold serial dilution assay; assay type: functional
Lipopolysaccharide (LPS) = experiment: Displacement of BODIPY-TR-cadaverine from Escherichia coli O128:B12 LPS assessed as effective dose incubated for 1 hr by fluorescence microplate reader assay
Escherichia coli [5] = experiment: Antibacterial activity against Escherichia coli ATCC 25922 assessed as inhibition of bacterial growth incubated for 18 hrs by two fold serial dilution assay; assay type: functional
Acinetobacter baumannii [6] = experiment: Potentiation of fusidic acid induced antibacterial activity against Acinetobacter baumannii ATCC 17978 assessed as decrease in bacterial growth at 0.4 uM incubated for 18 hrs in presence of fusidic acid by two fold serial dilution assay; assay type: functional, organism-based
Klebsiella pneumoniae [7] = experiment: Potentiation of fusidic acid induced antibacterial activity against Klebsiella pneumoniae ATCC 700603 assessed as decrease in bacterial growth at 0.4 uM incubated for 18 hrs in presence of fusidic acid by two fold serial dilution assay; assay type: functional, organism-based
Escherichia coli [8] = experiment: Potentiation of fusidic acid induced antibacterial activity against Escherichia coli ATCC 25922 assessed as decrease in bacterial growth at 0.4 uM incubated for 18 hrs in presence of fusidic acid by two fold serial dilution assay; assay type: functional, organism-based
Escherichia coli [9] = experiment: Potentiation of novobiocin induced antibacterial activity against Escherichia coli ATCC 25922 assessed as decrease in bacterial growth at 0.4 uM incubated for 18 hrs in presence of novobiocin by two fold serial dilution assay; assay type: functional, organism-based
Acinetobacter baumannii [10] = experiment: Potentiation of novobiocin induced antibacterial activity against Acinetobacter baumannii ATCC 17978 assessed as decrease in bacterial growth at 0.4 uM incubated for 18 hrs in presence of novobiocin by two fold serial dilution assay; assay type: functional, organism-based
Escherichia coli [11] = experiment: Potentiation of erythromycin induced antibacterial activity against Escherichia coli ATCC 25922 assessed as decrease in bacterial growth at 0.4 uM incubated for 18 hrs in presence of erythromycin by two fold serial dilution assay; assay type: functional, organism-based
Acinetobacter baumannii [12] = experiment: Potentiation of erythromycin induced antibacterial activity against Acinetobacter baumannii ATCC 17978 assessed as decrease in bacterial growth at 0.4 uM incubated for 18 hrs in presence of erythromycin by two fold serial dilution assay; assay type: functional, organism-based
Klebsiella pneumoniae [13] = experiment: Potentiation of erythromycin induced antibacterial activity against Klebsiella pneumoniae ATCC 700603 assessed as decrease in bacterial growth at 0.4 uM incubated for 18 hrs in presence of erythromycin by two fold serial dilution assay; assay type: functional, organism-based
Klebsiella pneumoniae [14] = experiment: Potentiation of novobiocin induced antibacterial activity against Klebsiella pneumoniae ATCC 700603 assessed as decrease in bacterial growth at 0.4 uM incubated for 18 hrs in presence of novobiocin by two fold serial dilution assay; assay type: functional, organism-based
Escherichia coli [15] = experiment: Potentiation of rifampicin induced antibacterial activity against NDM1-producing carbapenem-resistant Escherichia coli infected CD1 mouse sepsis model assessed as reduction in bacterial colony forming unit in blood at 10 mg/kg,SC administrated after 2 hrs of post-infection in presence of rifampicin; assay type: functional
Escherichia coli [16] = experiment: Potentiation of rifampicin induced antibacterial activity against NDM1-producing carbapenem-resistant Escherichia coli infected CD1 mouse sepsis model assessed as reduction in bacterial colony forming unit in blood at 10 mg/kg,SC administrated after 6 hrs of post-infection in presence of rifampicin; assay type: functional
[17] = Nephrotoxicity in Sprague-Dawley rat assessed as increase in blood urea nitrogen level at 30 mg/kg,iv administration for 1 hr and measured after 25 hrs; assay type: toxicity, organism-based; conditions: in vivo, 26 h
[18] = Nephrotoxicity in Sprague-Dawley rat assessed as increase in creatinine level at 30 mg/kg,iv administration for 1 hr and measured after 25 hrs; assay type: toxicity, organism-based; conditions: in vivo, 26 h
Escherichia coli [19] = experiment: Antibacterial activity against Escherichia coli ATCC 25922 assessed as change in membrane fluidity incubated for 1 hr by generalized polarization assay; assay type: functional, organism-based
Escherichia coli [20] = experiment: Antibacterial activity against Escherichia coli ATCC 25922 assessed as bacterial growth inhibition incubated for 1 hr by propidium iodide staining based fluorescence assay; assay type: functional, organism-based

Molecule	MHC10 [1] [µM]	Retention_time [2] [min]	MIC (Klebsiella pneumoniae [3]) [µM]	MIC (Acinetobacter baumannii [4]) [µM]	MIC (Escherichia coli [5]) [µM]	Activity (Acinetobacter baumannii [6])	Activity (Klebsiella pneumoniae [7])	Activity (Escherichia coli [8])	Activity (Escherichia coli [9])	Activity (Acinetobacter baumannii [10])	Activity (Escherichia coli [11])	Activity (Acinetobacter baumannii [12])	Activity (Klebsiella pneumoniae [13])	Activity (Klebsiella pneumoniae [14])	other results
CCCCCCCC(=O)N[C@@H](CCCCN)C(=O)N[C@@H](CCCCN)C(=O)N[C@@H](C)C(=O)N[C@@H](C)C(=O)N[C@@H](CCCCN)C(=O)N[C@@H](C)C(=O)N[C@@H](C)C(=O)N[C@@H](CCCCN)C(=O)N[C@@H](CCCCN)C(=O)N1CCC[C@H]1C(=O)N[C@@H](C)C(=O)N[C@@H](CCCCN)C(=O)N[C@@H](C)C(=O)N[C@@H](C)C(=O)N[C@@H](CCCCN)C(N)=O (HELM PEPTIDE1{[CCCCCCCC(=O)[*:2]].K.K.A.A.K.A.A.K.K.P.A.K.A.A.K.[am]}$$$$V2.0)	> 160	13.7	> 80	> 80	> 80	–	–	–	–	–	–	–	–	–	ED50 (Lipopolysaccharide (LPS)): inactive
Ac-KKLLKLLKKPLALLK-NH2	> 160	19.6	> 80	20	> 80	Active	Active	Active	Active	Active	Active	Active	Active	Active	–
Ac-KKLLKLLKKPLKALK-NH2	> 160	17.5	> 80	40	> 80	Active	Active	Active	Active	Active	Active	Active	Active	Active	–
Ac-KKLLKLLKKPLKLAK-NH2	> 160	17.1	> 80	80	> 80	Active	Active	Active	Active	Active	Active	Active	Active	Active	–
Ac-KKLLKLLKKPLKLLA-NH2	> 160	18.9	> 80	2.5	> 80	Active	Active	Active	Active	Active	Active	Active	Active	Active	–
Ac-KLLKLLKKPLKLLK-NH2	> 160	18.8	> 80	80	> 80	–	–	–	–	–	–	–	–	–	Activity (Escherichia coli [15]): >3 log10CFU; Activity (Escherichia coli [16]): >3 log10CFU
COLISTIN	–	–	–	–	–	–	–	–	–	–	–	–	–	–	Activity [17]: 30 mg/dL; Activity [18]: 0.74 mg/dL
POLYMYXIN B	–	–	–	–	–	–	–	–	–	–	–	–	–	–	Activity (Escherichia coli [19]): Active; Activity (Escherichia coli [20]): Active
